Source: patent US5647363A, “Ambulatory clearance function monitor” (The General Hospital Corporation, priority 1994, dated 1997)

What was measured:
[1] = human, in vivo; cited from earlier work
[2] = Clearance rate constant of labelled tracer by external ambulatory renal monitor; assay type: in vivo; settings: patient in intensive care unit, initial (moderately decreased renal function)
Method: A more detailed description of an example of a renal function monitor follows, in which clearance of a radiolabelled injected substance was measured according to the detected radiation according to the invention. The performance of the apparatus was tested by comparison with results obtained using standard techniques.
Data collection was performed using a battery-operated, pocket-size lightweight data logger having 32K total RAM (Tattletale, Model V, Onset Computer Corp., N. Falmouth, Mass.). The detector was a 16 mm diameter×2 mm thick cadmium-telluride (Cd-Te) detector (Radiation Monitoring Devices, Watertown, Mass.) connected to a preamplifier and a lower level discriminator. […]
The usual diet was not altered. Weight and height were measured soon after arrival at the treatment facility. […]
To determine the value of the invention for monitoring of renal function, two patients at risk of ARF with serum creatinine ≥2 mg/dl were monitored before, during and after an angiographic procedure. […] The rate constant, as measured according to the invention, decreased in this patient from 2.85×10^-3 min^-1 to 0.2×10^-3 min^-1; and the serum creatinine in this patient increased from 2.4 to 2.8 mg/dl over the succeeding 12 hours.
The rate of clearance of ^99m Tc-DTPA was also monitored in a patient in an intensive care unit. […]

Structure (SMILES): O=C([O-])CN(CCN(CC(=O)[O-])CC(=O)[O-])CCN(CC(=O)[O-])CC(=O)[O-].[99Tc+4] [^99m Tc-DTPA]
- rate constant (Normal) [1]: 0.0065 min⁻¹
- rate constant [2]: 0.0035 min⁻¹
